Results on five compounds are retold here after patent US8519183B2, “Uses for amino acid anticonvulsants” (Research Corporation Technologies, Inc., priority 2000, dated 2013).

Values joined by “and” are separate entries in the source; they are usually repeats but may differ in a detail not shown here. Equal entries are not always repeated.

The subject of one data set is Holtzman male rats. Kind of data set: NMDA Induced Hyperalgesia (thermal escape latency). Format: in vivo. How it is done:
Holtzman male rats weighing 275 to 325 grams were prepared with lumbar intrathecal catheters under isoflurane anesthesia. The catheters were externalized on the back of the head. Four to five days after implant, the animals were employed.
NMDA administration was accomplished using a gear driven microinjection syringe connected to the spinal catheter by a length of calibrated PE-90 tubing. The catheter plug was immediately replaced to avoid back flow and the rat was replaced in its testing box.
A modified Hargreaves box was used which allows the direction of a focused light beam on the underface of the paw through a glass surface upon which the rat stands. Surface temperature was maintained at 30° C. Withdrawal of the paw was taken as the response. Lack of response within twenty seconds was cause to terminate the test and assign that score.
The rats were placed on the thermal escape box and allowed to acclimate for 30 minutes prior to testing. A measurement was taken for each hindpaw to establish an average baseline latency (counted as time=0). (2R)-2-(acetylamino)-N-[(4-fluorophenyl)methyl]-3-methoxypropanamide solution, that is, test product in this experiment, was given at an intrathecal dose of 1 μg/10 μl 10 minutes prior to intrathecal NMDA. A control group was given an identical amount of saline 10 minutes prior to intrathecal NMDA. Measurements were then made at 15, 30, 60, 120, 240 and 360 minutes after intrathecal NMDA injection. General behavior assessments were made during each period of observation and include: tactile allodynia (vocalization/agitation induced by light touch applied to the body surface), spontaneous vocalization, biting and chewing of body surface, loss of hind limb placing and stepping reflex, loss of hind limb weight bearing and loss of righting reflex.

The test system of data set [1] is Sprague Dawley male rats. The data set can be described thus: Chung model of neuropathy, tactile threshold (von Frey hairs). Type of data set: in vivo. The protocol: Sprague Dawley male rats weighing 275 to 325 grams was used in this experiment. In this experiment, the response to neuropathic pain was determined. The neuropathic preparation used to induce an allodynic state is the surgical procedure described by Kim and Chung in Pain, 1992, 50, 355-363 (1992) and outlined in Chaplain, et al. in J. Neurosci. Meth., 1994, 53, […]. Briefly, the left L5 and L6 spinal nerves were isolated adjacent to the vertebral column and ligated with 6-0 silk suture distal to the dorsal root ganglion under isoflurane anesthesia. The rats were allowed a minimum 7 day postoperative recovery period before placement in the study.
Testing groups consisted of 6 rats per group. Each group received test article, (2R)-2-acetyl-amino)-N-[(4-fluorophenyl)methyl]-3-methoxypropanamide (hereinafter “test article”), in one of three concentrations delivered intraperitoneally; the high concentration was 50 mg/kg, the medium concentration was 30 mg/kg and the low concentration was 20 mg/kg. One group of 6 rats received saline control solution at a volume equal to that used for test article.
To assess tactile thresholds, rats were placed in a clear plastic, wire mesh-bottomed cage, divided into individual compartments. Animals were allowed to accommodate and then baseline thresholds were taken prior to drug treatment. To determine the 50% mechanical threshold for paw withdrawal, von Frey hairs were applied to the plantar mid-hindpaw, avoiding the tori (footpads). The eight von Frey hairs used are designated by [log(10*force required to bend hair, mg)] and range from 0.4-15.1 grams. Each hair was pressed perpendicularly against the paw with sufficient force to cause slight bending, and held for approximately 6-8 seconds. […] Stimuli were presented successively until either six data points were collected, or the maximum or minimum stimulus was reached. […] If a change in response occurred, either “−” to “+” or “+” to “−”, causing a change in the direction of stimulus presentation from descending to ascending or vice-versa, four additional data points were collected subsequent to the change. The resulting pattern of responses were tabulated and the 50% response threshold computer using the formula: log(threshold, mg×10)=Xf+kh
wherein: • Xf=value of the last von Frey hair applied; • k=correction factor based on response pattern (from calibration table) • h=mean distance in log units between stimuli.
Based on observations on normal, —operated rats and sham-operated rats, the cutoff of a 15.1-g hair is selected as the upper limit for testing.
The test was performed to establish an average baseline value, counted as time 0; then again at 15, 30, 60, 120 and 240 minutes after the dosing by the control saline solution or the test article.

Data set [2] concerns Sprague Dawley male rats. Kind of data set: general behavioral assessment at intraperitoneal doses of 30 to 100 mg/kg. Format: in vivo. An excerpt: General behavioral assessments were made during each period of observation and include: tactile allodynia (vocalization/agitation induced by light touch applied to the body surface), spontaneous vocalization, biting and chewing of body surface, loss of hind limb placing and stepping reflex, loss of hind limb weight bearing, and loss of righting reflex. All assessments, were noted as “present”, “absent” or ranked according to a graded scale.
Four rats were examined at intraperitoneal (IP) doses of 30 to 100 mg/kg.

In data set [3] the target is T1, serotonin 5-HT1A receptor (Rattus norvegicus, UniProt P19327).
T1 construct: from tissue; host or cells: living Long Evans derived rat (in vivo)
T1 sequence (P19327 1-422): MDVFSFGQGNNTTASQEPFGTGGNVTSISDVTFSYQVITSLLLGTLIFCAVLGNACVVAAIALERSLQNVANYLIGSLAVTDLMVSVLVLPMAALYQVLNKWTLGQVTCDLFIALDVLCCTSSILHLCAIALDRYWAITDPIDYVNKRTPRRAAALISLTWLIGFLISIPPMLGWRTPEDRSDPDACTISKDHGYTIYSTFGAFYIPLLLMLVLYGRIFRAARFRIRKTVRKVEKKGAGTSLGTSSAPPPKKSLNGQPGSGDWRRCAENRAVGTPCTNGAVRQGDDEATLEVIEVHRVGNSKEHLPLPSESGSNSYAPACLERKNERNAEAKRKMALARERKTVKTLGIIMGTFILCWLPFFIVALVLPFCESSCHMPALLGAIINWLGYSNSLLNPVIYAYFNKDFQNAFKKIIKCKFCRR
Kind of data set: 5-MeODMT-induced head twitch. Type of data set: in vivo, rats. The note with it: 10 mg/kg PO, 3 rats. The protocol: Test substance was administered PO (30 mg/kg) to a group of 3 Long Evans derived male or female rats weighing 150±20 gms one hour before injection of 5-MeODMT (5-methoxy-N,N-dimethyltryptamine, 3 mg/kg IP).

In data set [4] the test system is ICR derived male or female mice. The data set can be described thus: formalin induced hind paw licking. Type of data set: in vivo. As to conditions: 300 mg/kg PO. How it is done: The degree of pain is determined by measuring the decrease in the amount of time the animal spends licking the formalin-injected paw after administration of the drug.
Reduction of the induced hind paw licking time recorded during the following 20 to 30 minutes period by 50 percent or more (50%) indicated analgesic activity.

The test system is the same in data set [5]. Kind of data set: Analgesia, Acetic Acid Writhing. Format: in vivo. The note with it: 100 mg/kg PO. An excerpt: In the first animal study in Example 1, the degree of pain experienced by the mice after injection by acetic acid is seen by the number of writhes. If the mice experience no pain, there is no writhing.
The protocol is based on the acetic acid writhing test in mice, developed by R. Koster, et al. Fed. Proc, 18, 412 […], and referred to a Koster test and Hunskarai, S., et al., J. Neuroscience Meth. 14: 69-76, 1985.
Reduction in the number of writhes by 50 percent or more (≧50%) per group of animals observed during the 5 to 10 minute period after acetic acid administration, relative to a vehicle treated control group, indicated analgesic activity.

Another data set concerns male ICR mice. The data set can be described thus: radiant heat induced tail flick response. Format: in vivo. How it is done:
Groups of 4 male ICR mice weighing 22±2 gms were employed. A dose (30 mg/kg) of test compound dissolved in a vehicle of saline was administered intraperitoneally. The control group received vehicle alone. At pretreatment (0 minute) a focused beam of radiant heat was applied to the middle dorsal surface of the tail to elicit a tail flick response within 6-7.5 seconds in pre-treated animals. A maximum cut-off time of 15 seconds was set. The time required to elicit a pain response was recorded for each animal at 0 and 30 minutes following administration of test compound. Prolongation by 50 percent or more (≧50%) of the time required to elicit a tail flick indicated analgesic activity.

The target in another data set is NMDA receptor (Mus musculus, UniProt P35438). Kind of data set: NMDA receptor agonism/antagonism after ICVT administration. The note with it: ICVT 1 μg/mouse, N 3.

Method for NMDA receptor: Test substance was administered ICVT (intracerebroventricular, 30 μg in 5 μl/mouse). The appearance of convulsions/mortality in 2 or more (≧2) of 3 ICR derived male or female mice weighing 22±2 gms within the 5 minutes thereafter would indicate NMDA receptor agonism. At a dose where no significant agonist activity was seen within 5 minutes, ability to inhibit NMDA (60 mg/kg IV)—induced Tonic convulsions/mortality in 2 or more (≧2) of 3 ICR derived male or female mice weighing 22±gms within the following 5 minutes indicated NMDA receptor antagonist activity.

On to `COC[C@@H](NC(C)=O)C(=O)NCc1ccc(F)cc1` [test article, (2R)-2-(acetylamino)-N-[(4-fluorophenyl)methyl]-3-methoxypropanamide], for which the “thermal escape latency, baseline maintained” value with Holtzman male rats (intrathecal 1 μg/10 μl 10 minutes prior to intrathecal NMDA, out to 20 minutes post NMDA injection, n=2) is listed as “about 14 second”. For the same compound, the “thermal escape latency after dropping” value with Holtzman male rats (intrathecal 1 μg/10 μl, later than 20 minutes post NMDA injection, n=2) was “approximately 10 seconds”. Further, in the data set on Holtzman male rats (preliminary data), the “anti-hyperalgesic action in NMDA induced thermal hyperalgesia (in words)” value is on record as “measurable anti-hyperalgesic actions”. In addition, in the data set on Sprague Dawley male rats [1] (15 mg/kg, previous study), the “effect on the Chung Model (in words)” value was “no effect”. Also, the “tactile threshold after dosing (increase from approximately 2)” value in the data set on Sprague Dawley male rats [1] (20 mg (per kg) IP, 6 rats) is roughly 5 grams; in the data set on Sprague Dawley male rats [1] (30 mg/kg IP, 6 rats), roughly 5 grams. Further, the rats appearing sedated result with Sprague Dawley male rats [1] (30 mg IP, for approximately 1 hour) was “Four of 6”; in the data set on Sprague Dawley male rats [1] (50 mg/kg IP, for approximately 1 hour post injection), 6 of 6. In addition, in the data set with Sprague Dawley male rats [1] (50 mg/kg IP, 6 rats), the “tactile threshold after dosing (increase from 2)” value came to 11 grams. Further, the “duration of effect after injection” value in the data set on Sprague Dawley male rats [1] (IP, Chung Model) is listed as “approximately 2 hours”. Besides, the “reversal of tactile allodynia (in words)” value in the data set on Sprague Dawley male rats [1] (delivered intraperitoneally) was “significant reversal of tactile allodynia”. Also, the behavioral observation result with Sprague Dawley male rats [2] (30 mg/kg IP, one rat) was “no behavioral deficit”; with Sprague Dawley male rats [2] (50 mg/kg IP, one rat, lasted 60 minutes) it was “slightly catatonic”; in the data set with Sprague Dawley male rats [2] (60 mg/kg IP, one rat, within 15 minutes, severe exopthalmos, euthanized), “catatonic and displayed abnormal ambulation”; in the data set on Sprague Dawley male rats [2] (90 mg/kg IP, one rat, within 15 minutes, flaccid, severe exopthalmos, euthanized), “catatonic and unable to right itself”; in the data set on Sprague Dawley male rats [2] (100 mg/kg IP, one rat, within 15 minutes, euthanized), “laterally recumbent displaying seizures and bleeding from the nose”; in the data set on Sprague Dawley male rats [2] (Fifteen mg/kg, previously shown) it was “no observable affect”.

Consider `CN1C(=O)CN=C(c2ccccc2)c2cc(Cl)ccc21` [Diazepam, reference compound], for which the “Head Twitch, Ave.” value in data set [3] came out at 2.

Regarding `CC(=O)Oc1ccccc1C(=O)O` [Aspirin, reference compound], the “% Inh.” value in data set [4] was 72%; in data set [5] (relative to vehicle control) it was 100%. Further, in data set [4] (5 mice), the “Licking Time, Ave.” value amounted to 36 s. Moreover, in data set [5] (group of 3 mice), the “No. of Writhes, X ± SEM” value is reported as “X ± SEM 0 ± 0”. Moreover, in data set [5] (one hour before acetic acid, 5 to 10 minute period), the “No. of Writhes (individual animal)” value stood at 0.

Regarding `CN1CC[C@]23c4c5ccc(O)c4O[C@H]2[C@@H](O)C=C[C@H]3[C@H]1C5` [Morphine, reference compound], in the data set on male ICR mice (10 mg/kg IP), the “% Inh.” value worked out at 100%. Moreover, the “Response Time 30 Min. (individual animal)” value in the data set with male ICR mice (10 mg/kg IP, 30 minutes after administration, cut-off 15 seconds) is listed as greater than 15. In addition, in the data set on male ICR mice (10 mg/kg IP, mean of 4 mice), the “Response Time 30 Min., X” value was 15.0. Moreover, the “Response Time 0 Min., X” value with male ICR mice (10 mg/kg IP, mean of 4 mice, pretreatment) worked out at 6.9. In addition, the “Response Time 0 Min. (individual animal)” value in the data set with male ICR mice (10 mg/kg IP, pretreatment (0 minute)) is 7.4 (2×) and 6.5 and 6.4. Also, the “radiant heat induced tail flick response (in words)” value with male ICR mice (morphine control) was “positive response”.

In the case of `CN[C@H](CC(=O)O)C(=O)O` [NMDA, N-methyl-D-aspartate, reference compound], the “Agonism (mice with convulsions/mortality within 5 minutes)” value on NMDA receptor came to 3.
